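Protocol summary: plate cells (96-well), add compound at 5 concentrations, incubate 48 h, interpolate endpoints linearly. GI50: concentration for 50% inhibition of growth.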 Active and inactive are the calls of the source. No stated cut-off is given here; in the data, active = GI50 up to about 1.1 µM and inactive = higher.
Key:
Assay in all cases: NCI tumour cell line growth inhibition, 48 h
A498 = test system: A498
HCT-116 = test system: HCT-116
KM12 = test system: KM12
LOX IMVI = test system: LOX IMVI
KM-20L2 = test system: KM-20L2
MOLT-4 = test system: MOLT-4
DMS-273 = test system: DMS-273
COLO 205 = test system: COLO 205
SW-620 = test system: SW-620
SF-295 = test system: SF-295
UACC-257 = test system: UACC-257
OVCAR-3 = test system: OVCAR-3
EKVX = test system: EKVX
SF-268 = test system: SF-268
OVCAR-8 = test system: OVCAR-8
SNB-19 = test system: SNB-19
UO-31 = test system: UO-31
786-0 = test system: 786-0
HT-29 = test system: HT-29
NCI-H460 = test system: NCI-H460
SK-MEL-28 = test system: SK-MEL-28
IGROV-1 = test system: IGROV-1
HOP-92 = test system: HOP-92
UACC-62 = test system: UACC-62
ACHN = test system: ACHN
NCI-H23 = test system: NCI-H23
HOP-62 = test system: HOP-62
A549 = test system: A549
SK-MEL-5 = test system: SK-MEL-5
HCC 2998 = test system: HCC 2998
SN12C = test system: SN12C
NCI-H226 = test system: NCI-H226
SK-MEL-2 = test system: SK-MEL-2
U-251 = test system: U-251
SK-OV-3 = test system: SK-OV-3
TK-10 = test system: TK-10
CCRF-CEM = test system: CCRF-CEM
SNB-75 = test system: SNB-75
K562 = test system: K562
OVCAR-5 = test system: OVCAR-5
DMS-114 = test system: DMS-114
HOP-18 = test system: HOP-18
RPMI-8226 = test system: RPMI-8226
SR = test system: SR
M14 = test system: M14
SNB-78 = test system: SNB-78
DLD-1 = test system: DLD-1
NCI-H522 = test system: NCI-H522
CAKI-1 = test system: CAKI-1
M19-MEL = test system: M19-MEL
OVCAR-4 = test system: OVCAR-4
HCT-15 = test system: HCT-15
SF-539 = test system: SF-539
HL-60 = test system: HL-60
Malme-3M = test system: Malme-3M
LXFL 529 = test system: LXFL 529
RXF 393 = test system: RXF 393
XF498 = test system: XF498

In the case of `COC(=O)C1CC(=O)CCC1c1ccccc1` (stereo unspecified), the GI50 (A498) is reported as > 100 µM (inactive), the GI50 (HCT-116) is reported as > 100 µM (inactive) and the GI50 (KM12) is reported as > 100 µM (inactive). For the same compound, the GI50 (LOX IMVI) was > 100 µM (inactive), the GI50 (KM-20L2) was > 100 µM (inactive) and the GI50 (MOLT-4) was > 100 µM (inactive). The GI50 (DMS-273) was > 100 µM (inactive), the GI50 (COLO 205) was > 100 µM (inactive) and the GI50 (SW-620) was > 100 µM (inactive). For the same compound, the GI50 (SF-295) was > 100 µM (inactive), the GI50 (UACC-257) was > 100 µM (inactive) and the GI50 (OVCAR-3) was > 100 µM (inactive). The GI50 (EKVX) was > 100 µM (inactive), the GI50 (SF-268) was > 100 µM (inactive) and the GI50 (OVCAR-8) was > 100 µM (inactive). The GI50 (SNB-19) was > 100 µM (inactive), the GI50 (UO-31) was > 100 µM (inactive) and the GI50 (786-0) was > 100 µM (inactive). The GI50 (HT-29) was > 100 µM (inactive), the GI50 (NCI-H460) was > 100 µM (inactive) and the GI50 (SK-MEL-28) was > 100 µM (inactive). The GI50 (IGROV-1) was > 100 µM (inactive), the GI50 (HOP-92) was > 100 µM (inactive) and the GI50 (UACC-62) was > 100 µM (inactive). The GI50 (ACHN) was > 100 µM (inactive), the GI50 (NCI-H23) was > 100 µM (inactive) and the GI50 (HOP-62) was > 100 µM (inactive). The GI50 (A549) was > 100 µM (inactive), the GI50 (SK-MEL-5) was > 100 µM (inactive) and the GI50 (HCC 2998) was > 100 µM (inactive). The GI50 (SN12C) was > 100 µM (inactive), the GI50 (NCI-H226) was > 100 µM (inactive) and the GI50 (SK-MEL-2) was > 100 µM (inactive). For the same compound, the GI50 (U-251) was > 100 µM (inactive), the GI50 (SK-OV-3) was > 100 µM (inactive) and the GI50 (TK-10) was > 100 µM (inactive). The GI50 (CCRF-CEM) was > 100 µM (inactive), the GI50 (SNB-75) was > 100 µM (inactive) and the GI50 (K562) was > 100 µM (inactive). For the same compound, the GI50 (OVCAR-5) was > 100 µM (inactive), the GI50 (DMS-114) was > 100 µM (inactive) and the GI50 (HOP-18) was > 100 µM (inactive). The GI50 (RPMI-8226) was > 100 µM (inactive), the GI50 (SR) was > 100 µM (inactive) and the GI50 (M14) was > 100 µM (inactive). For the same compound, the GI50 (SNB-78) was > 100 µM (inactive), the GI50 (DLD-1) was > 100 µM (inactive) and the GI50 (NCI-H522) was > 100 µM (inactive). The GI50 (CAKI-1) was > 100 µM (inactive), the GI50 (M19-MEL) was > 100 µM (inactive) and the GI50 (OVCAR-4) was > 100 µM (inactive). For the same compound, the GI50 (HCT-15) was over 100 µM, the GI50 (SF-539) was > 100 µM (inactive) and the GI50 (HL-60) was > 100 µM (inactive). For the same compound, the GI50 (Malme-3M) was > 100 µM (inactive) and the GI50 (LXFL 529) was > 100 µM (inactive).

`CN(CCN(C)C(=O)CCn1cc(F)c(=O)[nH]c1=O)C(=O)CCn1cc(F)c(=O)[nH]c1=O` was tested, and the GI50 (HCT-116) was > 100 µM (inactive), the GI50 (KM12) was > 100 µM (inactive) and the GI50 (LOX IMVI) was > 100 µM (inactive). For the same compound, the GI50 (KM-20L2) was > 100 µM (inactive), the GI50 (MOLT-4) was > 100 µM (inactive) and the GI50 (DMS-273) was > 100 µM (inactive). For the same compound, the GI50 (COLO 205) was > 100 µM (inactive), the GI50 (SW-620) was > 100 µM (inactive) and the GI50 (SF-295) was > 100 µM (inactive). For the same compound, the GI50 (OVCAR-3) was > 100 µM (inactive), the GI50 (EKVX) was > 100 µM (inactive) and the GI50 (SF-268) was > 100 µM (inactive). For the same compound, the GI50 (OVCAR-8) was > 100 µM (inactive), the GI50 (SNB-19) was > 100 µM (inactive) and the GI50 (UO-31) was > 100 µM (inactive). The GI50 (786-0) was > 100 µM (inactive), the GI50 (HT-29) was > 100 µM (inactive) and the GI50 (NCI-H460) was > 100 µM (inactive). For the same compound, the GI50 (SK-MEL-28) was > 100 µM (inactive), the GI50 (IGROV-1) was > 100 µM (inactive) and the GI50 (UACC-62) was > 100 µM (inactive). For the same compound, the GI50 (ACHN) was > 100 µM (inactive), the GI50 (NCI-H23) was > 100 µM (inactive) and the GI50 (HOP-62) was > 100 µM (inactive). The GI50 (A549) was > 100 µM (inactive), the GI50 (SK-MEL-5) was > 100 µM (inactive) and the GI50 (HCC 2998) was > 100 µM (inactive). For the same compound, the GI50 (SN12C) was > 100 µM (inactive), the GI50 (RXF 393) was > 100 µM (inactive) and the GI50 (NCI-H226) was > 100 µM (inactive). For the same compound, the GI50 (SK-MEL-2) was > 100 µM (inactive), the GI50 (U-251) was > 100 µM (inactive) and the GI50 (TK-10) was > 100 µM (inactive). For the same compound, the GI50 (CCRF-CEM) was > 100 µM (inactive), the GI50 (SNB-75) was 36.2 µM (inactive) and the GI50 (K562) was > 100 µM (inactive). The GI50 (OVCAR-5) was > 100 µM (inactive), the GI50 (DMS-114) was > 100 µM (inactive) and the GI50 (RPMI-8226) was > 100 µM (inactive). The GI50 (SR) was > 100 µM (inactive), the GI50 (M14) was > 100 µM (inactive) and the GI50 (NCI-H522) was 3.16 µM (inactive). For the same compound, the GI50 (M19-MEL) was > 100 µM (inactive), the GI50 (OVCAR-4) was > 100 µM (inactive) and the GI50 (HCT-15) was over 100 µM. The GI50 (SF-539) was 95.5 µM (inactive), the GI50 (HL-60) was > 100 µM (inactive) and the GI50 (Malme-3M) was > 100 µM (inactive). The GI50 (LXFL 529) was > 100 µM (inactive) and the GI50 (XF498) was > 100 µM (inactive).
